The record followed here is patent publication US10178875B2, “Methods of modifying or imparting taste using organic compounds” (Givaudan, S.A., priority 2013, dated 2019).

SMILES strings stand for the structures.

The subject of one assay is panel of trained tasters. The assay can be described thus: Taste evaluation in water. The class given is in vivo. As to conditions: 1 ppm in water. The protocol:
A one percent cut of each compound of Examples 1-13 was prepared first. The hydrochloride salts were cut directly into water, while the free base examples were cut into ethanol. Next, 100 ml of a 1 ppm, 10 ppm and 20 ppm solution were prepared. The 1 ppm standards were prepared by addition of 0.0126 ml (cut in ethanol) or 0.01 ml (cut in water) to an amber bottle followed by dilution to 100 g total sample weight using water. The 10 and 20 ppm solutions were prepared similarly, but using 0.126 ml ethanol/0.1 ml water or 0.252 ml ethanol/0.2 ml water of the 1% cuts respectively. Next, the samples were evaluated by a panel of trained tasters.
Consider `COC(=O)c1ccccc1SCCc1ccccn1.Cl` [Example 9, METHYL 2-((2-(PYRIDIN-2-YL)ETHYL)THIO)BENZOATE HYDROCHLORIDE], for which the taste entry is listed as “weak: umami, astringent, very weak: salty,”.
Take `Oc1cccc(SCCc2ccccn2)c1` [Example 10, 3-((2-(PYRIDIN-2-YL)ETHYL)THIO)PHENOL]: the aroma entry is given as “green” and the taste result is recorded as “very weak bitter”.
Take `Cl.c1ccc(SCCc2ccccn2)cc1` [Example 2, 2-(2-(PHENYLTHIO)ETHYL)PYRIDINE HYDROCHLORIDE]: the aroma result is on record as “green” and the taste entry is on record as “weak umami, very weak astringent”.
Turning to `Cc1ccccc1SCCc1ccccn1.Cl` [Example 5, 2-(2-(O-TOLYLTHIO)ETHYL)PYRIDINE HYDROCHLORIDE], the aroma result was “green pepper” and the taste result is on record as “weak bitter, astringent, very weak metallic”.
With `COc1cccc(SCCc2ccccn2)c1` [Example 8, 2-(2-((3-METHOXYPHENYL)THIO)ETHYL)PYRIDINE], the aroma result is “Green pepper, beany” and the taste result was “very weak metallic, weak astringent”.
With `COC(=O)c1ccc(SCCc2ccccn2)cc1.Cl` [Example 3, METHYL 4-((2-(PYRIDIN-2-YL)ETHYL)THIO)BENZOATE HYDROCHLORIDE], the taste result was “weak to moderate umami, very weak: bitter,”.

The assay is the same for the next values; noted with them: 10 ppm in water.
As to `COC(=O)c1ccccc1SCCc1ccccn1.Cl` [Example 9, METHYL 2-((2-(PYRIDIN-2-YL)ETHYL)THIO)BENZOATE HYDROCHLORIDE], the taste result was “moderate umami,, weak: salty, astringent, very”.
As for `Oc1cccc(SCCc2ccccn2)c1` [Example 10, 3-((2-(PYRIDIN-2-YL)ETHYL)THIO)PHENOL], the taste entry is “weak: umami, metallic, very weak: bitter,”.
On to `Cl.c1ccc(SCCc2ccccn2)cc1` [Example 2, 2-(2-(PHENYLTHIO)ETHYL)PYRIDINE HYDROCHLORIDE], for which the aroma result is “green” and the taste result is given as “moderate umami, very weak: salty, bitter,”.
As for `Cc1ccccc1SCCc1ccccn1.Cl` [Example 5, 2-(2-(O-TOLYLTHIO)ETHYL)PYRIDINE HYDROCHLORIDE], the aroma entry is reported as “green pepper” and the taste entry is “weak umami, very weak bitter”.
With `COc1cccc(SCCc2ccccn2)c1` [Example 8, 2-(2-((3-METHOXYPHENYL)THIO)ETHYL)PYRIDINE], the aroma entry is “Green pepper” and the taste result is “weak: umami, astringent, very weak: bitter,”.
In the case of `COC(=O)c1ccc(SCCc2ccccn2)cc1.Cl` [Example 3, METHYL 4-((2-(PYRIDIN-2-YL)ETHYL)THIO)BENZOATE HYDROCHLORIDE], the aroma entry is recorded as “bloody metallic” and the taste result is recorded as “moderate umami, weak: bitter, metallic,”.

Still in this assay, the particulars now being: 20 ppm in water.
`COC(=O)c1ccccc1SCCc1ccccn1.Cl` [Example 9, METHYL 2-((2-(PYRIDIN-2-YL)ETHYL)THIO)BENZOATE HYDROCHLORIDE]: the taste entry is on record as “moderate umami, weak: salty, astringent,”.
As for `Oc1cccc(SCCc2ccccn2)c1` [Example 10, 3-((2-(PYRIDIN-2-YL)ETHYL)THIO)PHENOL], the aroma result is reported as “vegetable”.
As to `Cl.c1ccc(SCCc2ccccn2)cc1` [Example 2, 2-(2-(PHENYLTHIO)ETHYL)PYRIDINE HYDROCHLORIDE], the aroma entry is “green” and the taste entry is reported as “moderate umami, weak: salty, bitter, astringent”.
With `Cc1ccccc1SCCc1ccccn1.Cl` [Example 5, 2-(2-(O-TOLYLTHIO)ETHYL)PYRIDINE HYDROCHLORIDE], the aroma entry was “green pepper” and the taste entry is given as “weak umami, very weak: bitter, astringent”.
In the case of `COc1cccc(SCCc2ccccn2)c1` [Example 8, 2-(2-((3-METHOXYPHENYL)THIO)ETHYL)PYRIDINE], the aroma entry is recorded as “Green pepper” and the taste result is “weak: umami, very weak: bitter, metallic”.
As to `COC(=O)c1ccc(SCCc2ccccn2)cc1.Cl` [Example 3, METHYL 4-((2-(PYRIDIN-2-YL)ETHYL)THIO)BENZOATE HYDROCHLORIDE], the aroma result is reported as “bloody metallic” and the taste result is “moderate to strong umami, weak: bitter,”.

A further assay has as its system bench-top tasting panel. Briefly: Umami evaluation in retorted chicken broth (Example 20). The class given is in vivo. The settings on record: Example 3 4 ppm, Example 13 3 ppm, Example 10 4 ppm, Example 9 3 ppm. The protocol: (§1) Umami evaluations were done in dry noodle seasoning, chicken broth, retorted chicken broth, cheese sauce and salted potato chip applications. Each application was prepared using MSG, the experimental umami tastant and a blank which contained neither MSG nor the experimental umami tastant. Next, using a bench-top tasting panel (consisting of 7 to 14 panelists), panelists were asked to record the sensory attribute differences between the control (blank), the MSG application and the application containing the experimental umami tastant. These sensory attributes include umami, saltiness, bitterness, off-notes, mouth feel attribute, lingering attribute and flavor profile differences.
The procedure for the preparation of the retorted chicken broth is the same as in example 16. Compounds from Examples 3, 9, 10 and 13 were spiked individually into the chicken broth generating six samples, as described below.
Regarding `COC(=O)c1ccccc1SCCc1ccccn1.Cl` [Example 9, METHYL 2-((2-(PYRIDIN-2-YL)ETHYL)THIO)BENZOATE HYDROCHLORIDE], the “flavor profile described by panelists” value is on record as “a sweet, full umami profile”.
Regarding `Oc1cccc(SCCc2ccccn2)c1` [Example 10, 3-((2-(PYRIDIN-2-YL)ETHYL)THIO)PHENOL], the “flavor profile described by panelists” value is “a green pepper aroma and was slightly bitter”.
Same read-out and setting: the same measure for `COC(=O)c1ccc(SCCc2ccccn2)cc1.Cl` [Example 3, METHYL 4-((2-(PYRIDIN-2-YL)ETHYL)THIO)BENZOATE HYDROCHLORIDE]: “a sweeter flavor profile with a build up of umami character”.

The same assay, now with this note: MSG 0.20%, Example 3 4 ppm, Example 13 3 ppm, Example 10 4 ppm, Example 9 3 ppm, 9 panelists.
Consider `COC(=O)c1ccccc1SCCc1ccccn1.Cl` [Example 9, METHYL 2-((2-(PYRIDIN-2-YL)ETHYL)THIO)BENZOATE HYDROCHLORIDE], for which the umami strength ranking entry is on record as “MSG>3 ppm example 9>3 ppm Example 13>4 ppm Example 3>Blank retorted chicken broth>4 ppm Example 10”.
The same measure, in the same setting: the same measure for `Oc1cccc(SCCc2ccccn2)c1` [Example 10, 3-((2-(PYRIDIN-2-YL)ETHYL)THIO)PHENOL]: “MSG>3 ppm example 9>3 ppm Example 13>4 ppm Example 3>Blank retorted chicken broth>4 ppm Example 10”.
On the same count and under the same terms, the result for `COC(=O)c1ccc(SCCc2ccccn2)cc1.Cl` [Example 3, METHYL 4-((2-(PYRIDIN-2-YL)ETHYL)THIO)BENZOATE HYDROCHLORIDE] reads “MSG>3 ppm example 9>3 ppm Example 13>4 ppm Example 3>Blank retorted chicken broth>4 ppm Example 10”.

Another assay relates to bench-top tasting panel. Briefly: Bain marie (hot water bath) test with chicken broth. The class given is in vivo. The settings on record: hot water bath 150° F. for 4 hours, Example 3 3 ppm, Example 13 2 ppm (table), Example 10 3 ppm, Example 9 2 ppm. The procedure: as §1
Chicken broth was prepared as previously described in example 15. Compounds from Examples 3, 9, 10 and 13 were added to the chicken broth in the concentrations described below and placed in a hot water bath (150° F.) for 4 hours prior to taste evaluation.
As to `COC(=O)c1ccccc1SCCc1ccccn1.Cl` [Example 9, METHYL 2-((2-(PYRIDIN-2-YL)ETHYL)THIO)BENZOATE HYDROCHLORIDE], the “flavor profile described by panelists” value is on record as “a boost in saltiness along with a strong, full umami taste profile”.
Same read-out and setting: the same measure for `Oc1cccc(SCCc2ccccn2)c1` [Example 10, 3-((2-(PYRIDIN-2-YL)ETHYL)THIO)PHENOL]: “mid/late umami along with a slight bitterness and off notes”; for `COC(=O)c1ccc(SCCc2ccccn2)cc1.Cl` [Example 3, METHYL 4-((2-(PYRIDIN-2-YL)ETHYL)THIO)BENZOATE HYDROCHLORIDE]: “a bitter, limited umami flavor profile”.

The assay is the same for the next values; noted with them: hot water bath 150° F. for 4 hours, MSG 0.20%, Example 3 3 ppm, Example 13 2 ppm (table), Example 10 3 ppm, Example 9 2 ppm, 7 panelists.
Regarding `COC(=O)c1ccccc1SCCc1ccccn1.Cl` [Example 9, METHYL 2-((2-(PYRIDIN-2-YL)ETHYL)THIO)BENZOATE HYDROCHLORIDE], the umami strength ranking entry was “MSG>2 ppm example 9>3 ppm Example 10=4 ppm Example 13>Blank chicken broth>3 ppm Example 3”.
As for `Oc1cccc(SCCc2ccccn2)c1` [Example 10, 3-((2-(PYRIDIN-2-YL)ETHYL)THIO)PHENOL], the umami strength ranking entry was “MSG>2 ppm example 9>3 ppm Example 10=4 ppm Example 13>Blank chicken broth>3 ppm Example 3”.
With `COC(=O)c1ccc(SCCc2ccccn2)cc1.Cl` [Example 3, METHYL 4-((2-(PYRIDIN-2-YL)ETHYL)THIO)BENZOATE HYDROCHLORIDE], the umami strength ranking result is recorded as “MSG>2 ppm example 9>3 ppm Example 10=4 ppm Example 13>Blank chicken broth>3 ppm Example 3”.

Another assay has as its system bench-top tasting panel. Briefly: Umami evaluation on salted potato chips (Example 22). The format is in vivo. As to conditions: 1% salted potato chips; Example 3 10 ppm, Example 13 10 ppm, Example 10 6 ppm, Example 9 10 ppm. The procedure: as §1
The potato chips were prepared as previously described in example 19 and spiked with compounds from Examples 3, 9, 10 and 13 as described below.
Turning to `COC(=O)c1ccccc1SCCc1ccccn1.Cl` [Example 9, METHYL 2-((2-(PYRIDIN-2-YL)ETHYL)THIO)BENZOATE HYDROCHLORIDE], the “flavor profile described by panelists” value is recorded as “better mouthfeel, slight to moderate umami with an overall clean profile”.
With `Oc1cccc(SCCc2ccccn2)c1` [Example 10, 3-((2-(PYRIDIN-2-YL)ETHYL)THIO)PHENOL], the “flavor profile described by panelists” value is on record as “a nice salty, slight umami profile along with a slight offnote”.
In the case of `COC(=O)c1ccc(SCCc2ccccn2)cc1.Cl` [Example 3, METHYL 4-((2-(PYRIDIN-2-YL)ETHYL)THIO)BENZOATE HYDROCHLORIDE], the “flavor profile described by panelists” value is “a slight to moderate level of umami along with strong salty profile”.

The same assay, now with this note: 1% salted potato chips; MSG 0.2%, Example 3 10 ppm, Example 13 10 ppm, Example 10 6 ppm, Example 9 10 ppm; 9 panelists.
Turning to `COC(=O)c1ccccc1SCCc1ccccn1.Cl` [Example 9, METHYL 2-((2-(PYRIDIN-2-YL)ETHYL)THIO)BENZOATE HYDROCHLORIDE], the umami strength ranking is recorded as 10 ppm Example 3>10 ppm Example 9>MSG>10 ppm Example 13>blank>6 ppm Example 10.
Turning to `Oc1cccc(SCCc2ccccn2)c1` [Example 10, 3-((2-(PYRIDIN-2-YL)ETHYL)THIO)PHENOL], the umami strength ranking is on record as 10 ppm Example 3>10 ppm Example 9>MSG>10 ppm Example 13>blank>6 ppm Example 10.
Same read-out and setting: the result for `COC(=O)c1ccc(SCCc2ccccn2)cc1.Cl` [Example 3, METHYL 4-((2-(PYRIDIN-2-YL)ETHYL)THIO)BENZOATE HYDROCHLORIDE] reads 10 ppm Example 3>10 ppm Example 9>MSG>10 ppm Example 13>blank>6 ppm Example 10.
